{
  "source": "ChEMBL document CHEMBL1156144",
  "about": "“Biaryl ethers as novel non-nucleoside reverse transcriptase inhibitors with improved potency against key mutant viruses” (J Med Chem, 2009)",
  "key": {"[1]": {"test_system": "Human immunodeficiency virus", "test": "Antiviral activity against HIV with reverse transcriptase MDRC4 mutant assessed as inhibition of viral replication", "assay_type": "functional, organism-based", "conditions": "Human immunodeficiency virus 1"}, "[2]": {"test_system": "Human immunodeficiency virus", "test": "Antiviral activity against HIV with reverse transcriptase CNDO mutant assessed as inhibition of viral replication", "assay_type": "functional, organism-based", "conditions": "Human immunodeficiency virus 1"}, "[3]": {"test_system": "Human immunodeficiency virus", "test": "Antiviral activity against HIV with reverse transcriptase L100I mutant assessed as inhibition of viral replication", "assay_type": "functional, organism-based", "conditions": "Human immunodeficiency virus 1"}, "[4]": {"test_system": "Human immunodeficiency virus", "test": "Antiviral activity against HIV with reverse transcriptase K103N mutant assessed as inhibition of viral replication", "assay_type": "functional, organism-based", "conditions": "Human immunodeficiency virus 1"}, "[5]": {"test_system": "Human immunodeficiency virus", "test": "Antiviral activity against HIV with reverse transcriptase Y181C mutant assessed as inhibition of viral replication", "assay_type": "functional, organism-based", "conditions": "Human immunodeficiency virus 1"}, "[6]": {"test_system": "Human immunodeficiency virus", "test": "Antiviral activity against HIV with reverse transcriptase Y188L mutant assessed as inhibition of viral replication", "assay_type": "functional, organism-based", "conditions": "Human immunodeficiency virus 1"}, "[7]": {"test_system": "Human immunodeficiency virus", "test": "Antiviral activity against HIV with reverse transcriptase G190A mutant assessed as inhibition of viral replication", "assay_type": "functional, organism-based", "conditions": "Human immunodeficiency virus 1"}, "[8]": {"test_system": "Human immunodeficiency virus", "test": "Antiviral activity against HIV with reverse transcriptase G190S mutant assessed as inhibition of viral replication", "assay_type": "functional, organism-based", "conditions": "Human immunodeficiency virus 1"}, "[9]": {"test_system": "Human immunodeficiency virus", "test": "Antiviral activity against HIV with reverse transcriptase L100I/K103N double mutant assessed as inhibition of viral replication", "assay_type": "functional, organism-based", "conditions": "Human immunodeficiency virus 1"}, "[10]": {"test_system": "Human immunodeficiency virus", "test": "Antiviral activity against HIV with reverse transcriptase K103N/Y181C double mutant assessed as inhibition of viral replication", "assay_type": "functional, organism-based", "conditions": "Human immunodeficiency virus 1"}, "[11]": {"test_system": "Human immunodeficiency virus", "test": "Antiviral activity against HIV with reverse transcriptase K103N/G190A double mutant assessed as inhibition of viral replication", "assay_type": "functional, organism-based", "conditions": "Human immunodeficiency virus 1"}, "[12]": {"test_system": "Human immunodeficiency virus", "test": "Antiviral activity against HIV with reverse transcriptase Y181C/G190A double mutant assessed as inhibition of viral replication", "assay_type": "functional, organism-based", "conditions": "Human immunodeficiency virus 1"}, "[13]": {"test_system": "Human immunodeficiency virus", "test": "Antiviral activity against HIV with reverse transcriptase K103N/P225H double mutant assessed as inhibition of viral replication", "assay_type": "functional, organism-based", "conditions": "Human immunodeficiency virus 1"}, "[14]": {"test_system": "Human immunodeficiency virus", "test": "Antiviral activity against HIV with reverse transcriptase K101E/G190A double mutant assessed as inhibition of viral replication", "assay_type": "functional, organism-based", "conditions": "Human immunodeficiency virus 1"}, "[15]": {"test_system": "Human immunodeficiency virus", "test": "Antiviral activity against HIV with reverse transcriptase K101E/Y181C/G190A mutant assessed as inhibition of viral replication", "assay_type": "functional, organism-based", "conditions": "Human immunodeficiency virus 1"}, "[16]": {"test_system": "Human immunodeficiency virus", "test": "Antiviral activity against HIV with reverse transcriptase K103N/Y181C/G190A mutant assessed as inhibition of viral replication", "assay_type": "functional, organism-based", "conditions": "Human immunodeficiency virus 1"}, "[17]": {"test_system": "Human immunodeficiency virus", "test": "Antiviral activity against HIV with reverse transcriptase V106A/G190A/F227L mutant assessed as inhibition of viral replication", "assay_type": "functional, organism-based", "conditions": "Human immunodeficiency virus 1"}, "[18]": {"test_system": "Human immunodeficiency virus", "test": "Antiviral activity against HIV with reverse transcriptase MDRC4 mutant assessed as inhibition of viral replication relative to wild type", "assay_type": "functional"}, "[19]": {"test_system": "Human immunodeficiency virus", "test": "Antiviral activity against HIV with reverse transcriptase CNDO mutant assessed as inhibition of viral replication relative to wild type", "assay_type": "functional"}, "[20]": {"test_system": "Human immunodeficiency virus", "test": "Antiviral activity against HIV with reverse transcriptase L100I mutant assessed as inhibition of viral replication relative to wild type", "assay_type": "functional"}, "[21]": {"test_system": "Human immunodeficiency virus", "test": "Antiviral activity against HIV with reverse transcriptase K103N mutant assessed as inhibition of viral replication relative to wild type", "assay_type": "functional"}, "[22]": {"test_system": "Human immunodeficiency virus", "test": "Antiviral activity against HIV with reverse transcriptase Y181C mutant assessed as inhibition of viral replication relative to wild type", "assay_type": "functional"}, "[23]": {"test_system": "Human immunodeficiency virus", "test": "Antiviral activity against HIV with reverse transcriptase Y188L mutant assessed as inhibition of viral replication relative to wild type", "assay_type": "functional"}, "[24]": {"test_system": "Human immunodeficiency virus", "test": "Antiviral activity against HIV with reverse transcriptase G190A mutant assessed as inhibition of viral replication relative to wild type", "assay_type": "functional"}, "[25]": {"test_system": "Human immunodeficiency virus", "test": "Antiviral activity against HIV with reverse transcriptase G190S mutant assessed as inhibition of viral replication relative to wild type", "assay_type": "functional"}, "[26]": {"test_system": "Human immunodeficiency virus", "test": "Antiviral activity against HIV with reverse transcriptase L100I/K103N double mutant assessed as inhibition of viral replication relative to wild type", "assay_type": "functional"}, "[27]": {"test_system": "Human immunodeficiency virus", "test": "Antiviral activity against HIV with reverse transcriptase K103N/Y181C double mutant assessed as inhibition of viral replication relative to wild type", "assay_type": "functional"}, "[28]": {"test_system": "Human immunodeficiency virus", "test": "Antiviral activity against HIV with reverse transcriptase K103N/G190A double mutant assessed as inhibition of viral replication relative to wild type", "assay_type": "functional"}, "[29]": {"test_system": "Human immunodeficiency virus", "test": "Antiviral activity against HIV with reverse transcriptase Y181C/G190A double mutant assessed as inhibition of viral replication relative to wild type", "assay_type": "functional"}, "[30]": {"test_system": "Human immunodeficiency virus", "test": "Antiviral activity against HIV with reverse transcriptase K103N/P225H double mutant assessed as inhibition of viral replication relative to wild type", "assay_type": "functional"}, "[31]": {"test_system": "Human immunodeficiency virus", "test": "Antiviral activity against HIV with reverse transcriptase K101E/G190A double mutant assessed as inhibition of viral replication relative to wild type", "assay_type": "functional"}, "[32]": {"test_system": "Human immunodeficiency virus", "test": "Antiviral activity against HIV with reverse transcriptase K101E/Y181C/G190A mutant assessed as inhibition of viral replication relative to wild type", "assay_type": "functional"}, "[33]": {"test_system": "Human immunodeficiency virus", "test": "Antiviral activity against HIV with reverse transcriptase K103N/Y181C/G190A mutant assessed as inhibition of viral replication relative to wild type", "assay_type": "functional"}, "[34]": {"test_system": "Human immunodeficiency virus", "test": "Antiviral activity against HIV with reverse transcriptase V106A/G190A/F227L mutant assessed as inhibition of viral replication relative to wild type", "assay_type": "functional"}},
  "note": "pIC50: −log10 of the molar value.",
  "data": [
    {"smiles": "O=C1Nc2ccc(Cl)cc2[C@@](C#CC2CC2)(C(F)(F)F)O1", "note": "[EFAVIRENZ]", "values": [
      {"measurement": "pIC50", "setting": "[1]", "result": 8.10},
      {"measurement": "pIC50", "setting": "[2]", "result": 9.30},
      {"measurement": "pIC50", "setting": "[3]", "result": 7.68},
      {"measurement": "pIC50", "setting": "[4]", "result": 7.77},
      {"measurement": "pIC50", "setting": "[5]", "result": 8.96},
      {"measurement": "pIC50", "setting": "[6]", "result": 6.91},
      {"measurement": "pIC50", "setting": "[7]", "result": 8.44},
      {"measurement": "pIC50", "setting": "[8]", "result": 6.94},
      {"measurement": "pIC50", "setting": "[9]", "result": "< 6.30"},
      {"measurement": "pIC50", "setting": "[10]", "result": 7.56},
      {"measurement": "pIC50", "setting": "[11]", "result": 6.85},
      {"measurement": "pIC50", "setting": "[12]", "result": 8.11},
      {"measurement": "pIC50", "setting": "[13]", "result": 6.82},
      {"measurement": "pIC50", "setting": "[14]", "result": 7.76},
      {"measurement": "pIC50", "setting": "[15]", "result": 6.97},
      {"measurement": "pIC50", "setting": "[16]", "result": "< 6.30"},
      {"measurement": "pIC50", "setting": "[17]", "result": "< 6.30"},
      {"measurement": "fold change (FC)", "setting": "[18]", "result": 16},
      {"measurement": "fold change (FC)", "setting": "[19]", "result": 1},
      {"measurement": "fold change (FC)", "setting": "[20]", "result": 42},
      {"measurement": "fold change (FC)", "setting": "[21]", "result": 33.6},
      {"measurement": "fold change (FC)", "setting": "[22]", "result": 2.2},
      {"measurement": "fold change (FC)", "setting": "[23]", "result": 248.6},
      {"measurement": "fold change (FC)", "setting": "[24]", "result": 7.2},
      {"measurement": "fold change (FC)", "setting": "[25]", "result": 229},
      {"measurement": "fold change (FC)", "setting": "[26]", "result": ">454"},
      {"measurement": "fold change (FC)", "setting": "[27]", "result": 55.6},
      {"measurement": "fold change (FC)", "setting": "[28]", "result": 281.4},
      {"measurement": "fold change (FC)", "setting": "[29]", "result": 15.4},
      {"measurement": "fold change (FC)", "setting": "[30]", "result": 306.2},
      {"measurement": "fold change (FC)", "setting": "[31]", "result": 34.8},
      {"measurement": "fold change (FC)", "setting": "[32]", "result": 213},
      {"measurement": "fold change (FC)", "setting": "[33]", "result": ">454"},
      {"measurement": "fold change (FC)", "setting": "[34]", "result": ">454"}
    ]}
  ]
}
